Assay results published in patent publication US9877949B2, “Anticancer treatment methods involving analogs and derivatives of 3-(2-substituted-ethyl) indole compounds” (TUSKEGEE UNIVERSITY, priority 2013, dated 2018).
Several values for one entry are separate records, joined by “and”; a condition that tells them apart may be missing. Identical values can stand only once. Like-named read-outs stand apart in the source and are kept apart here.

Tests used:
[1] = tested on: SW480 colon cancer cells; experiment: MTT assay of cell viability and proliferation; assay type: cell-based
Method: SW480 colon cancer cells were treated with solvent DMSO (CONT), staurosporine (STS)—an agent that is known to kill cancer cells—and four select indole derivative compounds. Cell viability and proliferation was examined under a MTT assay protocol. […] The control solvent is shown as in FIG. 1A as the bar corresponding to “CONT.” When treated with only the control solvent, the cancer cells are 100% viable. Yet, according to FIG. 1A, treating cancer cells with 3-(2-bromoethyl) indole reduces cancer cell viability and proliferation by about 60% within 48 hours. As noted in FIG. 1A, 3-(2-bromoethyl) indole is represented by “INDOLE 9.” By comparison, a similar concentration of indole-3-carbinol reduces cell proliferation only by about 30%. As noted in FIG. 1A, indole-3-carbinol is represented by “INDOLE 14.”

[2] = tested on: HCT116 cells; experiment: MTS assay viability index; assay type: cell-based; conditions: HCT116, variable concentrations
Method: (§1) The activity of 3-(2-bromoethyl) indole on another colon cancer cell line, HCT116, was also tested. […] The absorbance reading at a wavelength of 490 nm is shown on the Y-axis.

[3] = tested on: luciferase; experiment: ATP-dependent cell viability with CellTiter-Glo kit, competition with cellular ATP; assay type: cell-based; conditions: 10 μM
Method: (§2) Luciferase reporter assays are dependent on the activity of the luciferase enzyme to catalyze the conversion of luciferin to oxyluciferin in the presence of ATP and oxygen, generating light in the process. Therefore, compounds that may directly interfere with the enzyme activity should be distinguished from those that inhibit the signaling activity reported inside the cells. To test this, a PXR-luciferase reporter system expressed in HepG2 cells was used and a luciferase assay was performed by adding 10 μM BEI-9 to the cells five minutes before measuring luciferase catalyzed reactions. In parallel, ATP-dependent cell viability was also measured using a CellTiter-Glo® kit to examine if BEI-9 would compete with cellular ATP, which is required for the luciferase activity.

[4] = tested on: NF-kB; experiment: NF-kB luciferase reporter assay in SW480-NFL cells; assay type: cell-based
Text: One of the regulators of cyclin D1 is the multifunctional transcription factor NF-kB. The effect of 3-(2-bromoethyl) indole on NF-kB signaling was also examined. […] In carrying out the test, NF-kB reporter SW480 cells (SW-NFL) were used. The cells were stably transduced with a construct containing NF-kB-response elements linked to the luciferase gene as the reporter. Previous work has shown that these cells activate NF-kB in response to TNFα, as well as some clinically used chemotherapeutic drugs. As an experimental response to NF-kB activation, these cells express increased amounts of luciferase enzyme, which can be detected by luminescence assay.
First, the effect of 3-(2-bromoethyl) indole and each of the thirteen other indole compounds on the basal levels of luciferase activity was assessed. An equal number of SW480-NFL cells seeded in a 96-well plate were treated with control vehicle (DMSO) or one of the fourteen indole-derivative test compounds. Luciferase enzyme activity was measured 24 hours after the treatment. […] See FIG. 12, where BEI-9 is the 9th indole test sample depicted in the graph.
(§3) Second, it was determined whether cytokine-induced NF-kB activation can be blocked by 3-(2-bromoethyl) indole. In prior studies, SW480-NFL cells were tested and confirmed as being responsive to TNFα, a canonical NF-kB pathway inducer, and various clinical chemotherapeutic drugs. To this end, TNFα was first used to activate NF-kB in these reporter cells. It was examined whether co-treatment would interfere with activation of the NF-kB pathway. SW480-NFL cells were treated with 25 ng/ml TNFα as an activator, and with 0.5 μM, 5 μM, or 10 μM BEI-9 as test compound. […] The effect of such a combination treatment is shown in the […] microphotograph in FIG. 14. Referring to FIG. 14, microphotographs were taken of SW480 cells treated with vehicle control (DMSO) (top left), 25 ng/ml TNFα (top right), 5 μM 3-(2-bromoethyl) indole (bottom left), and a combination of 25 ng/ml TNFα and 5 μM 3-(2-bromoethyl) indole (bottom right). Accordingly, in addition to inhibiting NF-kB activation, the addition of 3-(2-bromoethyl) indole to TNFα treated cells may divert TNF receptor-initiated receptor signaling towards apoptosis.
In prior art, it has been shown that camptothecin (also referred to herein as “CPT”), one of adjuvant drugs clinically used to treat various types of cancers, activates NF-kB in SW480 reporter cells at peak activating concentrations of 0.5 μM or 1.0 μM. The consequence of NF-kB activation as a result of treatment with adjuvant chemotherapy drugs is still under study. To examine whether a combination of CPT with BEI-9 suppresses a drug-induced NF-kB response in SW480 reporter cells, such cells were treated with 0.5 μM CPT and varying concentrations (0.2 μM-12.5 μM) of BEI-9.

[5] = tested on: SW480 cells; experiment: Scratch wound healing assay; assay type: cell-based; conditions: SW480, 25 μM, up to 96 hours
Method: Scratch wound healing assay was performed on SW480 cells grown to confluence. Confluent SW480 cells were scratched with a pipette tip to create cell wounds, which were treated with vehicle control solvent (DMSO) and 25 μM 3-(2-bromoethyl) indole. The ability of the cells to migrate and fill the gap created by the scratch was evaluated. […] By comparison, vehicle-treated cells filled the scratch within 96 hours. […] The ability of the cells to migrate and fill the gap was followed by light microscopy imaging at 24-hour intervals. […] The scratch wound is most visible as a clear space at t0. […] Only a few single cells treated with 3-(2-bromoethyl) indole were visible and scattered in the gap. Moreover, there was no evidence of cell division.

[6] = target: T1, luciferase (Photinus pyralis, UniProt P08659); assay type: cell-based; conditions: HepG2 PXR-luciferase, 10 μM added five minutes before measuring
T1 construct: expressed in transfected cells; host or cells: HepG2
Method: as §2

[7] = tested on: cyclin A; experiment: Immunoblotting of cyclin A protein level; assay type: cell-based; conditions: SW480, immunoblotting
Method: (§4) Progression through the cell cycle is regulated by cyclins and their enzyme partner, cyclin dependent kinases (CDK). The regulation of the cyclin-CDK pair activity is controlled by synthesis and degradation of the cyclin moiety. Cyclin D1 is one of the regulatory cyclins involved in the G1-S transition of cells, and is a known oncogene. As cyclin D1 is a key regulator of cell cycle progression, levels of cyclin D1 protein in both control cells and treated cells were assessed by immunoblotting. Also assessed were the levels of cyclin A, another cyclin regulating both G1-S as well as G2-M transitions. […] Accordingly, inhibiting the expression of cyclins likely contributes to the observed “freezing” effect described previously.

[8] = tested on: cyclin D1; experiment: Immunoblotting of cyclin D1 protein level; assay type: cell-based; conditions: SW480, immunoblotting
Method: as §4

[9] = tested on: SW480 cells; experiment: Microphotographs of cells for signs of apoptosis (membrane blebs); assay type: cell-based; conditions: for sign of cell apoptosis, single agent: SW480, 25 ng/ml TNFα alone or 5 μM 3-(2-bromoethyl) indole alone
Method: Microphotographs were taken of SW480 cells treated with vehicle control (DMSO) (top left), 25 ng/ml TNFα (top right), 5 μM 3-(2-bromoethyl) indole (bottom left), and a combination of 25 ng/ml TNFα and 5 μM 3-(2-bromoethyl) indole (bottom right).
as §3

[10] = tested on: SW480 colon cancer cells; experiment: Recovery after wash-out of compound; assay type: cell-based; conditions: SW480, 25 μM for 48 hours, then four days in fresh medium
Method: To examine if treated cells would recover after the compound was washed out, SW480 colon cancer cells were treated with 25 μM 3-(2-bromoethyl) indole for 48 hours, then the monolayer was rinsed 3 times with culture medium to remove the compound. The cell monolayers were left in the fresh growth medium for four days of further incubation. Results shown in FIG. 10 reveal that the vehicle-treated SW480 cells rapidly grew to full confluency in just 48 hours.

[11] = tested on: HCT116 cells; experiment: Microphotograph dose response of proliferation; assay type: cell-based; conditions: 5 μM and 10 μM
Method: as §1

[12] = tested on: SW480 colon cancer cells; experiment: Microscopic evaluation of cell proliferation; assay type: cell-based; conditions: SW480, 25 μM, 24 and 48 hours
Method: (§5) SW480 colon cancer cells were treated with either vehicle control (DMSO) or 25 μM 3-(2-bromoethyl) indole. […] By comparison, vehicle-treated cells rapidly proliferated and visibly filled the surface on which they were seeded. Microphotographs were taken 24 hours (a and c) and 48 hours (b and d) after the treatments. […] To further examine the possibility of inhibited cell proliferation, cell cycle analysis was performed by flow cytometry on cells that were treated with 50 μM 3-(2-bromoethyl) indole for 24 and 48 hours. […] In fact, the specific effect of treating cells with 3-(2-bromoethyl) was to “freeze” the cell growth during treatment. This is illustrated in FIG. 3.
Increasing concentrations of 3-(2-bromoethyl) indole (from 12.5 μM to 100 μM) were tested on SW480 colon cancer cells, and viability of the treated cells was measured by the CellTiter-Glo® (Promega® Corporation) method. […] Similarly, dose response examination and cell cycle analysis using variable concentrations of 3-(2-bromoethyl) indole ranging from 12.5 to 100 μM confirms that even doses lower than 50 μM inhibit cell proliferation. […]

[13] = tested on: SW480 colon cancer cells; experiment: CellTiter-Glo cell viability; assay type: cell-based; conditions: Homo sapiens; SW480, 12.5 μM; read-out: reduction in cell viability
Method: (§6) Increasing concentrations of 3-(2-bromoethyl) indole (from 12.5 μM to 100 μM) were tested on SW480 colon cancer cells, and viability of the treated cells was measured by the CellTiter-Glo® (Promega® Corporation) method. […] Similarly, dose response examination and cell cycle analysis using variable concentrations of 3-(2-bromoethyl) indole ranging from 12.5 to 100 μM confirms that even doses lower than 50 μM inhibit cell proliferation. Thus, useful embodiments of the present invention provide for a method of inhibiting cancer cell proliferation, comprising treating the cancer cells with 3-(2-bromoethyl) indole with concentrations of greater than or equal to 0.2 μM, or in a range of 1.0 μM to 50.0 μM, or more specifically, from 5.0 μM to 25.0 μM.

[14] = tested on: SW480 cancer cells; experiment: Cell cycle analysis by flow cytometry; assay type: cell-based
Method: as §5, §6
It was also examined by flow cytometry whether the combination of CPT and BEI-9 would induce cell apoptosis as measured by accumulation of sub-G1 population. […] Referring to FIG. 17, cell cycle profiles of parental SW480 cells treated with DMSO (a), BEI-9 (b), CPT (c), BEI-9 and CPT co-treatment (d) or 24 hours of CPT followed by 24 hours of only BEI-9 (e) are shown. The short arrow points to the sub-G1 population of cells resulting from the combination treatment.

[15] = tested on: NF-kB; conditions: SW480 reporter cells; cited from earlier work

T1 sequence (P08659 whole entry, species assumed): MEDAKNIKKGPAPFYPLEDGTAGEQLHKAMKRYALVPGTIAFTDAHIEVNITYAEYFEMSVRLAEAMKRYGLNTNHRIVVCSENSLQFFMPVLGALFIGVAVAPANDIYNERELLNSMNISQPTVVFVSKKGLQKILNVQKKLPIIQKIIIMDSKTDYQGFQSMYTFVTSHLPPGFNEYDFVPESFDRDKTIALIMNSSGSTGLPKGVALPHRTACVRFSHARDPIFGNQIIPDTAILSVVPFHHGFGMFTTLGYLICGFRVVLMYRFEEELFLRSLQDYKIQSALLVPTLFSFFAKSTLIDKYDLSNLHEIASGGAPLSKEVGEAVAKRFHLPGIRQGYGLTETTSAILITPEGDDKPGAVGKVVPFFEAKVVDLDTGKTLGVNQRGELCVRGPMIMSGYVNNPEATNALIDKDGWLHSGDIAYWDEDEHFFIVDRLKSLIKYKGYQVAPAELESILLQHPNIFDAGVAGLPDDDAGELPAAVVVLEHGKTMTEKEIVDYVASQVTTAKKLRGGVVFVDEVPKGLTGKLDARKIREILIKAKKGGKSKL

## BrCCc1c[nH]c2ccccc12 [3-(2-bromoethyl) indole]
[1]; SW480, within 48 hours, relative to control solvent DMSO
  reduction of cancer cell viability and proliferation: about 60%
[2]
  viability index (absorbance 490 nm): decreased the viability index
[3]
  inhibition of luciferase by competing with cellular ATP: does not inhibit luciferase
[4]; SW480-NFL, 25 ng/ml TNFα
  difference between the effects of 0.5 μM and 5 μM on TNFα-activated NF-kB reporter: over 10 fold
[4]; SW480-NFL, 25 ng/ml TNFα, 5 μM or 10 μM compound
  activation of NF-kB reporter activity by TNFα: completely abolished
[4]; SW480-NFL, 24 hours after treatment
  basal luciferase reporter activity: reduced the reporter activity
[4]; SW480 reporter cells, 0.5 μM CPT, 0.2 μM BEI-9
  effect on CPT-induced NF-kB reporter activity: did not have any noticeable effect
[4]; SW480 reporter cells, 0.5 μM CPT, BEI-9 concentrations greater than 0.8 μM, versus CPT-only
  inhibition of CPT-induced NF-kB response: more than 50%
[5]
  motility, ability to migrate and fill the wound gap: markedly inhibited the motility
[6]
  direct inhibition of luciferase: does not inhibit luciferase
[7]
  expression of cyclin A protein: drastically decreased
[8]
  expression of cyclin D1 protein: drastically decreased
[9]
  sign of cell apoptosis, single agent: fails to indicate any sign of cell apoptosis
[9]; SW480, 5 μM compound combined with 25 ng/ml TNFα
  sign of cell apoptosis, combination with TNFα: appearance of cells with membrane blebs
[10]
  recovery of cells after wash-out: not able to recover at all
[11]
  proliferation of HCT116 cells: completely stopped the proliferation
[12]
  cell proliferation by microscopic evaluation: failed to multiply
[13]
  cytotoxicity at 12.5 µM: ~50%
[14]; SW480, 50 μM, 24 and 48 hours
  cell cycle profile, proliferation: effectively prevents proliferation
[14]; SW480, 24 and 48 hours after treatment
  induction of sub-G1 population indicative of apoptosis: no apparent induction of sub-G1 population
[14]; SW480, CPT for 24 hours followed by BEI-9 for 24 hours
  apoptosis as accumulation of sub-G1 population, sequential treatment: appearance of a distinct sub-G1 population
[14]; SW480, dose response examination and cell cycle analysis, 12.5 to 100 μM
  doses that inhibit cell proliferation: lower than 50 μM
[14]; SW480, flow cytometry
  apoptosis as accumulation of sub-G1 population, co-treatment of CPT and BEI-9: did not induce apoptosis
  apoptosis as accumulation of sub-G1 population, single agent: did not induce apoptosis
[14]; SW480, highest concentration tested 100 μM
  cell death in cell cycle analysis: Cell death is noticed

## COc1ccc2[nH]ccc2c1 [5-methoxyindole, reference compound]
[7]
  expression of cyclin A protein: did not exhibit the same beneficial effects
[8]
  expression of cyclin D1 protein: did not exhibit the same beneficial effects

## CC[C@@]1(O)C(=O)OCc2c1cc1n(c2=O)Cc2cc3ccccc3nc2-1 [camptothecin]
[15]
  peak activating concentrations for NF-kB activation: 0.5 µM and 1.0 µM
[14]; SW480, flow cytometry
  apoptosis as accumulation of sub-G1 population, single agent: did not induce apoptosis

## OCc1c[nH]c2ccccc12 [indole-3-carbinol, reference compound]
[1]
  reduction of cancer cell viability and proliferation: about 30%

## TNFα
[9]
  sign of cell apoptosis, single agent: fails to indicate any sign of cell apoptosis
